# Target: Potassium voltage-gated channel subfamily H member 2 (Homo sapiens, UniProt Q12809)
# Assay: hERG Assay
# Protocol: Experiments were performed on the SyncroPatch 384PE (Nanion Technologies) high throughput patch clamp platform at rt and used medium resistance chips with 4 patch holes per site. hERG-expressing Chinese hamster ovary K1 (CHO) cell line were used in assay-ready format and kept in liquid nitrogen until use. 2 vials of cells (10×10^6 cells per vial) were thawed and added to 20 mL Hepes-buffered saline solution (HBSS). HBSS comprised 140 mM NaCl, 4 mM KCl, 10 mM HEPES and 5 mM Glucose (pH 7.4). The internal patch clamp solution was KF 120 mM, KCl 20 mM, HEPES 10 mM, EGTA 10 mM, and 25 μM Escin (pH7.2). After the initial sealing process was complete, a seal enhancer solution comprising HBSS supplemented with 10 mM CaCl2 and 1 mM MgCl2 was applied to cells. The external solution was then exchanged (4 times) for external patch clamp solution comprising NaCl 80 mM, KCl 4 mM, HEPES 10 mM, CaCl2 2 mM, MgCl2 1 mM, glucose 5 mM, and NMDG 60 mM (pH 7.4). All solutions were stored at rt, except Escin, which was stored at 4° C. All compounds were dispensed in greiner-bio 384 well plates and tested in a 6 point cumulative assay (final DMSO concentration 0.33%). Only wells that passed acceptance criteria (30 MegaOhm seal resistance, Z prime >0.4 and current size >0.2 nA) were used in this analysis.
# Potassium voltage-gated channel subfamily H member 2, sequence (Q12809 whole entry): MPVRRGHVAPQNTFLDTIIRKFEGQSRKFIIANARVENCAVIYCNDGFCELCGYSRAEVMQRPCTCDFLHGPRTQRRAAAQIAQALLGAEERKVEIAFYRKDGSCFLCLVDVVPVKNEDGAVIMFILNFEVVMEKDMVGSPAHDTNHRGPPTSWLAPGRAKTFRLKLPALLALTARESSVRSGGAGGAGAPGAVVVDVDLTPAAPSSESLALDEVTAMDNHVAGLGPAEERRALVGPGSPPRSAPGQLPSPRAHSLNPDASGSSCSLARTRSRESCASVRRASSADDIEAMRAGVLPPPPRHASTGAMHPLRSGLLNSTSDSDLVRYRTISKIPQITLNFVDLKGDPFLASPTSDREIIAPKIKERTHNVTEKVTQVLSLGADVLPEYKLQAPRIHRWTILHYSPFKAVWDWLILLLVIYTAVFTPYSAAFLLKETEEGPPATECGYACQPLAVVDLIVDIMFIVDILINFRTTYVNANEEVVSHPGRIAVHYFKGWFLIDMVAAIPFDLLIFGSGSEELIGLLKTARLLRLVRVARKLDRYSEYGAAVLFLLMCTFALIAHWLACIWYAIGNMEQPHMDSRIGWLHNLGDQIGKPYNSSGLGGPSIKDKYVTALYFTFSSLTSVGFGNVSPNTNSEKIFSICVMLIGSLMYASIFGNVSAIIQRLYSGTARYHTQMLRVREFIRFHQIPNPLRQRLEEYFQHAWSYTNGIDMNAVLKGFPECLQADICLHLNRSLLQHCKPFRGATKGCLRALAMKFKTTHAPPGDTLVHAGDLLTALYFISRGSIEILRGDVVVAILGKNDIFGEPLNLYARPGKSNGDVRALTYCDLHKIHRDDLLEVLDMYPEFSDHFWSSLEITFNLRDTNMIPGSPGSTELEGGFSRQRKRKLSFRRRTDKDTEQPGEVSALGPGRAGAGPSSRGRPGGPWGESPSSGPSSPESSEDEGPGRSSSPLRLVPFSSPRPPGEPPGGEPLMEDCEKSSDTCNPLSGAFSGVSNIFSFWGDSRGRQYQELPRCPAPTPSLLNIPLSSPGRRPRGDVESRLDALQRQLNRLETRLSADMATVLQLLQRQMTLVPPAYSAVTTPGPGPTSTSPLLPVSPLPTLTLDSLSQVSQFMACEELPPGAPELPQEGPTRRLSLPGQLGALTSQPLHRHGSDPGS
compound,measurement,value
"C[C@@]1(O)CC[C@@H](Nc2nnc(-c3ccc(C(F)(F)F)cc3O)c3ccncc23)C1 [US11970463, Example 38]",IC50,34 µM
